Measurements as given in US11098018B2, “Potassium channel inhibitors” (ACESION PHARMA ApS, priority 2017, dated 2021).

Each compound was assayed against T1, human SK3 channel (hKCa0.2.3) (Homo sapiens, UniProt Q9UGI6) (assay: Automated patch clamping (QPatch whole-cell)). Conditions: HEK-293 cells stably expressing human SK3; free calcium 400 nM; normalized to inhibitory effect of N-methyl bicuculline.
T1 construct: expressed in transfected cells
Type: cell-based
Experimental: Automated whole cell patch-clamp recordings were performed using a QPatch 16 HT system and single-hole Qplates (Biolin Scientific, Sophion, Denmark) on HEK-293 cells stably expressing the human SK3 channel (hKCa0.2.3). Cells were cultured and prepared for experiments using normal cell culturing procedures. A total of 4-5 million cells were used per experiment. The Qpatch automatically generates giga sealing, whole-cell formation, compound application and recording of current. hKCa2.3 currents were recorded in symmetrical K^+ solutions, with an intracellular solution consisting of in mM: KCl 108; KOH/EGTA (ethylene glycol-bis(2-aminoethylether)-N,N,N′,N′-tetraacetic acid) 31.25/10; CaCl2) 8.1; MgCl2 1.2; HEPES (2-[4-(2-hydroxyethyl)piperazin-1-yl]ethanesulfonic acid) 10; KOH 15, pH adjusted to pH=7.2 with HCl. The free calcium concentration was calculated to 400 nM. The extracellular solution consisted of in mM: KCl 150; CaCl2) 0.1; MgCl2 3; HEPES 10; Glucose 10, pH=7.4 with KOH. The cells were held at 0 mV and hKCa0.2.3 currents were elicited by a linear voltage ramp from −80 mV to +80 mV (200 ms in duration) applied every 5th second. The compound application protocol consisted of 12 recording periods lasting from 50-200 s: 1) Baseline recordings in extracellular solution; 2) Application of the positive control N-methyl bicuculline (100 μM), which is characterized by full efficacy, fast on- and off-rate; 3-4) Wash-out; 5-9) Increasing concentrations of test compound to establish an IC50 value; 10-11) Wash-out; 12) positive control with compound NS8593 (N-[(1R)-1,2,3,4-tetrahydro-1-naphthalenyl]-1H-benzimidazol-2-amine) (1 μM). Data were sampled at 10 kHz, 4th order Bessel filter, cut-off frequency 3 kHz. Currents were compensated for run-down. Potency was quantified as the concentration needed to inhibit half of the SK channel activity and reported as an IC50 value. All effects of compounds of the present invention as tested were normalized to the observed inhibitory effect of N-methyl bicuculline.

IC50 [µM] | Compound
< 10 | CN(C)C(=O)C(Nc1nc2ccccc2[nH]1)c1cccc(C(F)(F)F)c1 (single isomer, unassigned; (-)) [Example 1a, (−)2-[(1H-1,3-benzodiazol-2-yl)amino]-N,N-dimethyl-2-[3-(trifluoromethyl)phenyl]acetamide]
< 10 | CNC(=O)CC(Nc1nc2ccccc2[nH]1)c1cccc(C(F)(F)F)c1 (single isomer, unassigned; (-)) [Example 2a, (−)3-[(1H-1,3-benzodiazol-2-yl)amino]-N-methyl-3-[3(trifluoromethyl)phenyl]propanamide]
< 10 | CNC(=O)CCC(Nc1nc2ccccc2[nH]1)c1cccc(C(F)(F)F)c1 (single isomer, unassigned; (-)) [Example 25a, (−)-4-[(1H-1,3-benzodiazol-2-yl)amino]-N-methyl-4-[3-(trifluoromethyl)phenyl]butanamide]
< 10 | CN(C)C(=O)C(Nc1nc2ccccc2[nH]1)c1cccc(C(F)(F)F)c1 (centres unmarked) [Example 1, 2-[(1H-1,3-benzodiazol-2-yl)amino]-N,N-dimethyl-2-[3-(trifluoromethyl)phenyl]acetamide]
< 10 | CNC(=O)CC(Nc1nc2ccccc2[nH]1)c1cccc(C(F)(F)F)c1 (centres unmarked) [Example 2, 3-[(1H-1,3-benzodiazol-2-yl)amino]-N-methyl-3-[3(trifluoromethyl)phenyl]propanamide]
< 10 | C=CCNC(=O)CC(Nc1nc2ccccc2[nH]1)c1cccc(C(F)(F)F)c1 (centres unmarked) [Example 3, 3-[(1H-1,3-benzodiazol-2-yl)amino]-N-(prop-2-en-1-yl)-3-[3-(trifluoromethyl)phenyl]propanamide]
< 10 | CNC(=O)CC(Nc1nc2c(C)c(F)ccc2[nH]1)c1cccc(C(F)(F)F)c1 (centres unmarked) [Example 4, 3-[(5-fluoro-4-methyl-1H-1,3-benzodiazol-2-yl)amino]-N-methyl-3-[3-(trifluoromethyl)phenyl]propanamide]
< 10 | CNC(=O)CC(Nc1nc2c(C)cccc2[nH]1)c1cccc(C(F)(F)F)c1 (centres unmarked) [Example 5, N-methyl-3-[(4-methyl-1H-1,3-benzodiazol-2-yl)amino]-3-[3-(trifluoromethyl)phenyl]propanamide]
< 100 | CNC(=O)CC(Nc1nc2c(CCO)cccc2[nH]1)c1cccc(C(F)(F)F)c1 (centres unmarked) [Example 6, 3-{[4-(2-hydroxyethyl)-1H-1,3-benzodiazol-2-yl]amino}-N-methyl-3-[3-(trifluoromethyl)phenyl]propanamide]
< 10 | COC(=O)C(Cc1cccc(C(F)(F)F)c1)Nc1nc2c(NC(C)=O)cccc2[nH]1 (centres unmarked) [Example 7, methyl 2-[(4-acetamido-1H-1,3-benzodiazol-2-yl)amino]-3-[3-(trifluoromethyl)phenyl]propanoate]
< 100 | CNC(=O)C(Cc1cccc(C(F)(F)F)c1)Nc1nc2ccccc2[nH]1 (centres unmarked) [Example 8, 2-[(1H-1,3-benzodiazol-2-yl)amino]-N-methyl-3-[3-(trifluoromethyl)phenyl]propanamide]
< 10 | CNC(=O)CC(Nc1nc2ccccc2[nH]1)c1cc(C)c(F)c(C)c1 (centres unmarked) [Example 9, 3-[(1H-1,3-benzodiazol-2-yl)amino]-3-(4-fluoro-3,5-dimethylphenyl)-N-methylpropanamide]
< 10 | CNC(=O)CC(Nc1nc2ccccc2[nH]1)c1ccc(Cl)c(C)c1 (centres unmarked) [Example 10, 3-[(1H-1,3-benzodiazol-2-yl)amino]-3-(4-chloro-3-methylphenyl)-N-methylpropanamide]
< 10 | CON(C)C(=O)CC(Nc1nc2ccccc2[nH]1)c1cccc(C(F)(F)F)c1 (centres unmarked) [Example 11, 3-[(1H-1,3-benzodiazol-2-yl)amino]-N-methoxy-N-methyl-3-[3-(trifluoromethyl)phenyl]propanamide]
< 10 | CNC(=O)CC(Nc1nc2ccccc2[nH]1)c1cccc(SC)c1 (centres unmarked) [Example 12, 3-[(1H-1,3-benzodiazol-2-yl)amino]-N-methyl-3-[3-(methylsulfanyl)phenyl]propanamide]
< 10 | CNC(=O)CC(Nc1nc2ccccc2[nH]1)c1cccc(OC(F)(F)F)c1 (centres unmarked) [Example 13, 3-[(1H-1,3-benzodiazol-2-yl)amino]-N-methyl-3-[3-(trifluoromethoxy)phenyl]propanamide]
< 10 | Cc1c(F)ccc2[nH]c(NC(CC(N)=O)c3cccc(C(F)(F)F)c3)nc12 (centres unmarked) [Example 14, 3-[(5-fluoro-4-methyl-1H-1,3-benzodiazol-2-yl)amino]-3-[3-(trifluoromethyl)phenyl]propanamide]
< 10 | CC(C)CNC(=O)C(Nc1nc2ccccc2[nH]1)c1cccc(C(F)(F)F)c1 (centres unmarked) [Example 15, 2-[(1H-1,3-benzodiazol-2-yl)amino]-N-(2-methylpropyl)-2-[3-(trifluoromethyl)phenyl]acetamide]
< 10 | O=C(NC1CC1)C(Nc1nc2ccccc2[nH]1)c1cccc(C(F)(F)F)c1 (centres unmarked) [Example 16, 2-[(1H-1,3-benzodiazol-2-yl)amino]-N-cyclopropyl-2-[3-(trifluoromethyl)phenyl]acetamide]
< 10 | CNC(=O)CC(Nc1nc2cc(F)ccc2[nH]1)c1cccc(C(F)(F)F)c1 (centres unmarked) [Example 17, 3-[(5-fluoro-1H-1,3-benzodiazol-2-yl)amino]-N-methyl-3-[3-(trifluoromethyl)phenyl]propanamide]
< 10 | CNC(=O)CC(Nc1nc2cc(OC(F)(F)F)ccc2[nH]1)c1cccc(C(F)(F)F)c1 (centres unmarked) [Example 18, N-methyl-3-{[5-(trifluoromethoxy)-1H-1,3-benzodiazol-2-yl]amino}-3-[3-(trifluoromethyl)phenyl]propanamide; trifluoroacetic acid]
< 10 | CNC(=O)CC(Nc1nc2c(COC)cccc2[nH]1)c1cccc(C(F)(F)F)c1 (centres unmarked) [Example 19, 3-{[4-(methoxymethyl)-1H-1,3-benzodiazol-2-yl]amino}-N-methyl-3-[3-(trifluoromethyl)phenyl]propanamide]
< 10 | CNC(=O)CC(Nc1nc2c(Cl)cccc2[nH]1)c1cccc(C(F)(F)F)c1 (centres unmarked) [Example 20, 3-[(4-chloro-1H-1,3-benzodiazol-2-yl)amino]-N-methyl-3-[3-(trifluoromethyl)phenyl]propanamide]
< 10 | CNC(=O)CC(Nc1nc2c(CO)cccc2[nH]1)c1cccc(SC(F)(F)F)c1 (centres unmarked) [Example 21, 3-{[4-(hydroxymethyl)-1H-1,3-benzodiazol-2-yl]amino}-N-methyl-3-{3-[(trifluoromethyl)sulfanyl]phenyl}propanamide]
< 10 | CNC(=O)CC(Nc1nc2ccccc2[nH]1)c1ccc(Cl)c(Cl)c1 (centres unmarked) [Example 22, 3-[(1H-1,3-benzodiazol-2-yl)amino]-3-(3,4-dichlorophenyl)-N-methylpropanamide]
< 10 | CNC(=O)CC(Nc1nc2ccccc2[nH]1)c1cccc(C(=O)OC)c1 (centres unmarked) [Example 24, methyl 3-{1-[(1H-1,3-benzodiazol-2-yl)amino]-2-(methylcarbamoyl)ethyl}benzoate]
< 10 | CNC(=O)CCC(Nc1nc2ccccc2[nH]1)c1cccc(C(F)(F)F)c1 (centres unmarked) [Example 25, 4-[(1H-1,3-benzodiazol-2-yl)amino]-N-methyl-4-[3-(trifluoromethyl)phenyl]butanamide]

Compound | IC50 [µM]
CNC(=O)C(C)(Nc1nc2ccccc2[nH]1)c1cccc(C(F)(F)F)c1 (single isomer, unassigned; (+)) [Example 26a, (+)-2-[(1H-1,3-benzodiazol-2-yl)amino]-N-methyl-2-[3-(trifluoromethyl)phenyl]propanamide] | < 10
CNC(=O)C(C)(Nc1nc2ccccc2[nH]1)c1cccc(C(F)(F)F)c1 (centres unmarked) [Example 26, 2-[(1H-1,3-benzodiazol-2-yl)amino]-N-methyl-2-[3-(trifluoromethyl)phenyl]propanamide; trifluoroacetic acid] | < 10
